Laboratory results taken from patent publication US20240315241A1, “ANTIMICROBIAL POLYMERIC COMPOSITION” (priority 2021, published 2024).

Assays:
[1] = test system: blend of Pseudomonas aeruginosa ATCC 15442, Staphylococcus aureus ATCC 6538, Escherichia coli ATCC 10536, Enterococcus hirae ATCC 10541 and Candida albicans …; assay: Antimicrobial activity, zone of inhibition on TSA Petri dishes (Example 4); type: cell-based; settings: aqueous solution pH 8.3, [Ag+]=0.1%, 100 μl, 37° C. for 24 h
Experimental: The antimicrobial activity of an aqueous solution at pH 8.3 of Na^+3[Ag^+(MPA^2−)2]^3− with an ionic concentration of [Ag+]=0.1% was tested against the following blend of microorganism strains (bought from Diagnostic International Distribution S.p.A): Pseudomonas aeruginosa ATCC 15442, Staphylococcus aureus ATCC 6538, Escherichia coli ATCC 10536, Enterococcus hirae ATCC 10541 e Candida albicans ATCC 10231. For each microbial strain, the concentration of the blend was in the range 1.5×10^12−5×10^12 unity forming colonies (UFC). A volume of 100 μl of the blend was seeded in Petri dishes containing a non-selective culture medium TSA (Tryptone Soya Agar) and a sample of 100 μl of said aqueous solution of Na^+3[Ag^+(MPA^2−)2]^3− was put in the centre of each Petri dish in contact with the microbial blend. The Petri dishes were then incubated at 37° C. for 24 h.

[2] = test system: SARS-Cov-2; assay: Antiviral effectiveness towards SARS-Cov-2: virus incubated on treated surface, replication in VeroE6 cells by qRT-PCR; type: cell-based; settings: for ΔCt / Logarithmic difference: Ag+ 0.108% aqueous solution on surface; for ΔCt: vs untreated; for Logarithmic difference: vs untreated control
[3] = test system: SARS-Cov-2; assay: Cytopathic effect in VeroE6 cells infected with treated SARS-Cov-2, optical microscopy

Cc1nc([S-])sc1CC(=O)[O-].Cc1nc([S-])sc1CC(=O)[O-].[Ag+].[Na+].[Na+].[Na+] [Aqueous solution containing Ag, Na^+3[Ag^+(MPA^2−)2]^3−]
zone of inhibition (of the microbial growth) [1]: circa 3 cm | ΔCt ([2]; virus 5 minutes, 24 hpi): 3.04 | Logarithmic difference ([2]; virus 5 minutes, 24 hpi): −0.91 | ΔCt ([2]; virus 5 minutes, 48 hpi): 1.91 | Logarithmic difference ([2]; virus 5 minutes, 48 hpi): −0.57 | ΔCt ([2]; virus 5 minutes, 72 hpi): 0.61 | Logarithmic difference ([2]; virus 5 minutes, 72 hpi): −0.18 | reduction of the viral charge ([2]; Ag+ 0.108%, at a time more distant from the infection): not significant | decrease of the viral charge ([2]; Ag+ 0.108%, virus 5 minutes, 48 pci): 0.57 logarithms | decrease of the viral charge ([2]; Ag+ 0.108%, virus 5 minutes, 24 h post-infection): 0.91 logarithms | reduction of the viral charge ([2]; diluted aqueous solution, Ag+ 0.002%, virus 5 minutes, 24 hours post-infection): 0.82 logarithms | cytopathic effect ([3]; Ag+ 0.002%, 72 hours post-infection): small decrease of the cytopathic effect | cytopathic effect compared to cells infected with untreated virus ([3]; Ag+ 0.108%, 48 hours post-infection): lower cytopathic effect
